Columns and labels:
JAK3 = target: T1, JAK3 (Homo sapiens, UniProt P52333); experiment: Kinobeads assay, JAK3; assay type: binding; settings: mixed Molt4/Ramos lysate, read-out: Inhibition values (IC50) JAK3
T1 construct: endogenous in cells; host or cells: mixed Molt4/Ramos lysate (1:2)
T1 sequence (P52333 1-1124): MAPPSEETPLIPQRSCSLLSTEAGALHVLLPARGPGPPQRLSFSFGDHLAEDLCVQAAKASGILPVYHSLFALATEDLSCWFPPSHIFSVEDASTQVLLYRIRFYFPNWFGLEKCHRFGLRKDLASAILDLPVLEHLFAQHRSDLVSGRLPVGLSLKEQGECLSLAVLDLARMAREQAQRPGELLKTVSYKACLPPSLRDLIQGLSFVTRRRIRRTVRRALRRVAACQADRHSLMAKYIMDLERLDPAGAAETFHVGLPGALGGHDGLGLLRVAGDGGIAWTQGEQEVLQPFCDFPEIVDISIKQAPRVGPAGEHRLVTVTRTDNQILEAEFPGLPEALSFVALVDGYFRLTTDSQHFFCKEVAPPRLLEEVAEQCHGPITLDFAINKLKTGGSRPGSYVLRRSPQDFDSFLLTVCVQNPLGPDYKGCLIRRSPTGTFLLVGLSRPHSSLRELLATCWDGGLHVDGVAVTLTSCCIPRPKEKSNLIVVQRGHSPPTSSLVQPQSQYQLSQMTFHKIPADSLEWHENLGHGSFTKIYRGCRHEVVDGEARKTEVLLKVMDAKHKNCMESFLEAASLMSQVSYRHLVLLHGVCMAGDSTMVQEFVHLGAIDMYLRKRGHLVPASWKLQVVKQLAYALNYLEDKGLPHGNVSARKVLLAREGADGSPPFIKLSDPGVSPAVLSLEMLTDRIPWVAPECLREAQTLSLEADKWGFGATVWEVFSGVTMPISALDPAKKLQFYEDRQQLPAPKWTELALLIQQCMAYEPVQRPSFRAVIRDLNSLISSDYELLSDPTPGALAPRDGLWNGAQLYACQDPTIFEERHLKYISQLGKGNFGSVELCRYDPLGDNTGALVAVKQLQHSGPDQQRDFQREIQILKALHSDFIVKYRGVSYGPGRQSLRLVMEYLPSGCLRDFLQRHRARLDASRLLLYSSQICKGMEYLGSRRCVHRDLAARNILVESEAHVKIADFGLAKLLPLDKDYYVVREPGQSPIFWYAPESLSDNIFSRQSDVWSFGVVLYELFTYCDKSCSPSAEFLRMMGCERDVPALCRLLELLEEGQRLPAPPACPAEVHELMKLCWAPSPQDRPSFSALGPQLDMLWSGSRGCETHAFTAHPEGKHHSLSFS
Method in brief: (§1)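 IC50 values come from dose-response curves of JAK2/JAK3 captured on immobilized aminopyrido-pyrimidine beads, quantified by antibody dot blot with infrared read-out. Compounds (1:3 series, 9 steps, from 5 mM DMSO stock) competed for 3 h in the cold with mixed Molt4/Ramos lysate (1:2, 10 mg/mL protein).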

JAK2 = target: T2, JAK2 (Homo sapiens, UniProt O60674); experiment: Kinobeads assay, JAK2; assay type: binding; settings: mixed Molt4/Ramos lysate, read-out: Inhibition values (IC50) JAK2
T2 construct: endogenous in cells; host or cells: mixed Molt4/Ramos lysate (1:2)
T2 sequence (O60674 whole entry): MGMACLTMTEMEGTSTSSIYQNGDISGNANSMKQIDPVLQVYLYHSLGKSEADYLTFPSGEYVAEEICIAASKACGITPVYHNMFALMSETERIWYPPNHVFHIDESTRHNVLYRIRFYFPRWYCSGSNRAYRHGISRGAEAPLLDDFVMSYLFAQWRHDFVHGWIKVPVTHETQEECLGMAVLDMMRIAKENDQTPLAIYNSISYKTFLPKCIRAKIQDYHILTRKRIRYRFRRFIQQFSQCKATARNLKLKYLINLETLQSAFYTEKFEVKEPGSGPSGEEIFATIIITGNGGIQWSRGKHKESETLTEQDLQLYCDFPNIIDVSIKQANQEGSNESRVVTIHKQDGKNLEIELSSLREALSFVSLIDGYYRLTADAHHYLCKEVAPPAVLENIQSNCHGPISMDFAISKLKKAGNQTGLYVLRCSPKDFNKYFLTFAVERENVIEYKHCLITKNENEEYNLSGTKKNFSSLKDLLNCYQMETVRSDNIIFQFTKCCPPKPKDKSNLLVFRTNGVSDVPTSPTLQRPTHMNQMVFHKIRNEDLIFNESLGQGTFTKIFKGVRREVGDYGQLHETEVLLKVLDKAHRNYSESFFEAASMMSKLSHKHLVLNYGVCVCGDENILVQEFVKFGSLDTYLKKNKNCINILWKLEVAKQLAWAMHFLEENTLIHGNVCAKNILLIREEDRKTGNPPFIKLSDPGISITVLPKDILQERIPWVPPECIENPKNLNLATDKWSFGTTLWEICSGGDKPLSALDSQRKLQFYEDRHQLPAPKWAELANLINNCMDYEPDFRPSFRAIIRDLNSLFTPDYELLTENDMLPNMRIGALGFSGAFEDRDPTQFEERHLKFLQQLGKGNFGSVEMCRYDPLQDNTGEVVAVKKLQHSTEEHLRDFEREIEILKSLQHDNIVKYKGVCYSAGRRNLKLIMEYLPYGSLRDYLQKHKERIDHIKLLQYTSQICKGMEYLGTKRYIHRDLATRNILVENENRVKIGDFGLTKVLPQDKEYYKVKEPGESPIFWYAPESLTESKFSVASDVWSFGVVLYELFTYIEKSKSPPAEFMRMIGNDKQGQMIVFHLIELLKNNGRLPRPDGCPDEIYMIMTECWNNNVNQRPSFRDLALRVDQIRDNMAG
Method in brief: as §1

Structure (SMILES)	IC50 (JAK3) [nM]	IC50 (JAK2) [nM]
O=C1COCCN1c1cc(F)cc(Cn2ncc3cnc(Nc4cnn(CCO)c4)nc32)c1F [Example 74, 4-(2,5-Difluoro-3-((6-((1-(2-hydroxyethyl)-1H-pyrazol-4-yl)amino)-1H-pyrazolo[3,4-d]pyrimidin-1-yl)methyl)phenyl)morpholin-3-one]	< 100	100 to 1000
Fc1cc(N2CCOCC2)c(F)c(Cn2ncc3cnc(Nc4cn[nH]c4)nc32)c1F [Example 81, N-(1H-Pyrazol-4-yl)-1-(2,3,6-trifluoro-5-morpholinobenzyl)-1H-pyrazolo[3,4-d]pyrimidin-6-amine]	< 100	1000 to 10000
OCCn1cc(Nc2ncc3cnn(Cc4cc(F)cc(N5CCOCC5)c4)c3n2)cn1 [Example 51, 2-(4-((1-(3-Fluoro-5-morpholinobenzyl)-1H-pyrazolo[3,4-d]pyrimidin-6-yl)amino)-1H-pyrazol-1-yl)ethanol]	< 100	1000 to 10000
O=C1CNCCN1c1cc(F)cc(Cn2ncc3cnc(Nc4cnn(CCO)c4)nc32)c1 [Example 63, 1-(3-Fluoro-5-((6-((1-(2-hydroxyethyl)-1H-pyrazol-4-yl)amino)-1H-pyrazolo[3,4-d]pyrimidin-1-yl)methyl)phenyl)piperazin-2-one]	< 100	1000 to 10000
COC1CN(c2cccc(Cn3ncc4cnc(Nc5cnn(C)c5)nc43)c2)C1 [Example 65, 1-(3-(3-Methoxyazetidin-1-yl)benzyl)-N-(1-methyl-1H-pyrazol-4-yl)-1H-pyrazolo[3,4-d]pyrimidin-6-amine]	< 100	≥ 10000
OCCn1cc(Nc2ncc3cnn(Cc4c(F)ccc(N5CCOCC5)c4F)c3n2)cn1 [Example 82, 2-(4-((1-(2,6-Difluoro-3-morpholinobenzyl)-1H-pyrazolo[3,4-d]pyrimidin-6-yl)amino)-1H-pyrazol-1-yl)ethanol]	< 100	≥ 10000
O=C1COCCN1c1cc(F)cc(Cn2ncc3cnc(Nc4cnn(CCO)c4)nc32)c1 [Example 58, 4-(3-Fluoro-5-((6-((1-(2-hydroxyethyl)-1H-pyrazol-4-yl)amino)-1H-pyrazolo[3,4-d]pyrimidin-1-yl)methyl)phenyl)morpholin-3-one]	< 100	1000 to 10000
CN(C)CCCn1cc(Nc2ncc3cnn(Cc4c(F)ccc(N5CCOCC5=O)c4F)c3n2)cn1 [Example 75, 4-(3-((6-((1-(3-(Dimethylamino)propyl)-1H-pyrazol-4-yl)amino)-1H-pyrazolo[3,4-d]pyrimidin-1-yl)methyl)-2,4-difluorophenyl)morpholin-3-one]	< 100	1000 to 10000
O=C1COCCN1c1cc(F)cc(Cn2ncc3cnc(Nc4cn[nH]c4)nc32)c1 [Example 84, 4-(3-((6-((1H-Pyrazol-4-yl)amino)-1H-pyrazolo[3,4-d]pyrimidin-1-yl)methyl)-5-fluorophenyl)morpholin-3-one]	< 100	100 to 1000
Cn1cc(Nc2ncc3cnn(Cc4c(F)ccc(N5CCNCC5=O)c4F)c3n2)cn1 [Example 76, 1-(2,4-Difluoro-3-((6-((1-methyl-1H-pyrazol-4-yl)amino)-1H-pyrazolo[3,4-d]pyrimidin-1-yl)methyl)phenyl)piperazin-2-one]	< 100	1000 to 10000
OCCn1cc(Nc2ncc3cnn(Cc4c(F)c(F)cc(N5CCOCC5)c4F)c3n2)cn1 [Example 45, 2-(4-((1-(2,3,6-Trifluoro-5-morpholinobenzyl)-1H-pyrazolo[3,4-d]pyrimidin-6-yl)amino)-1H-pyrazol-1-yl)ethanol]	< 100	1000 to 10000
OCCn1cc(Nc2ncc3cnn(Cc4cccc(N5CCNCC5)c4)c3n2)cn1 [Example 47, 2-(4-((1-(3-(piperazin-1-yl)benzyl)-1H-pyrazolo[3,4-d]pyrimidin-6-yl)amino)-1H-pyrazol-1-yl)ethanol]	< 100	1000 to 10000
COC1CCN(c2cccc(Cn3ncc4cnc(Nc5cnn(C)c5)nc43)c2)CC1 [Example 77, 1-(3-(4-Methoxypiperidin-1-yl)benzyl)-N-(1-methyl-1H-pyrazol-4-yl)-1H-pyrazolo[3,4-d]pyrimidin-6-amine]	< 100	≥ 10000
O=C1COCCN1c1cc(F)c(F)c(Cn2ncc3cnc(Nc4cnn(CCO)c4)nc32)c1 [Example 59, 4-(3,4-Difluoro-5-((6-((1-(2-hydroxyethyl)-1H-pyrazol-4-yl)amino)-1H-pyrazolo[3,4-d]pyrimidin-1-yl)methyl)phenyl)morpholin-3-one]	< 100	≥ 10000
O=C1COCCN1c1cc(F)c(F)c(Cn2ncc3cnc(Nc4cnn(CCO)c4)nc32)c1F [Example 62, 4-(2,4,5-Trifluoro-3-((6-((1-(2-hydroxyethyl)-1H-pyrazol-4-yl)amino)-1H-pyrazolo[3,4-d]pyrimidin-1-yl)methyl)phenyl)morpholin-3-one]	< 100	1000 to 10000
Cn1cc(Nc2ncc3cnn(Cc4c(F)c(F)cc(N5CCNCC5)c4F)c3n2)cn1 [Example 66, N-(1-Methyl-1H-pyrazol-4-yl)-1-(2,3,6-trifluoro-5-(piperazin-1-yl)benzyl)-1H-pyrazolo[3,4-d]pyrimidin-6-amine]	< 100	1000 to 10000

Now from value to molecule:

IC50 (JAK3) [nM]	IC50 (JAK2) [nM]	Structure (SMILES)
< 100	100 to 1000	Cn1cc(Nc2ncc3cnn(Cc4cc(F)cc(N5CCOCC5=O)c4F)c3n2)cn1 [Example 73, 4-(2,5-Difluoro-3-((6-((1-methyl-1H-pyrazol-4-yl)amino)-1H-pyrazolo[3,4-d]pyrimidin-1-yl)methyl)phenyl)morpholin-3-one]
< 100	1000 to 10000	Cn1cc(Nc2ncc3cnn(Cc4cc(F)cc(N5CCOCC5)c4)c3n2)cn1 [Example 49, 1-(3-Fluoro-5-morpholinobenzyl)-N-(1-methyl-1H-pyrazol-4-yl)-1H-pyrazolo[3,4-d]pyrimidin-6-amine]
< 100	≥ 10000	OCCn1cc(Nc2ncc3cnn(Cc4cc(N5CCOCC5)cc(F)c4F)c3n2)cn1 [Example 56, 2-(4-((1-(2,3-Difluoro-5-morpholinobenzyl)-1H-pyrazolo[3,4-d]pyrimidin-6-yl)amino)-1H-pyrazol-1-yl)ethanol]
< 100	≥ 10000	OCCn1cc(Nc2ncc3cnn(Cc4cc(N5CCOCC5)ccc4F)c3n2)cn1 [Example 44, 2-(4-((1-(2-Fluoro-5-morpholinobenzyl)-1H-pyrazolo[3,4-d]pyrimidin-6-yl)amino)-1H-pyrazol-1-yl)ethanol]
< 100	100 to 1000	Cn1cc(Nc2ncc3cnn(Cc4cc(F)cc(C(=O)N5CCOCC5)c4)c3n2)cn1 [Example 79, (3-Fluoro-5-((6-((1-methyl-1H-pyrazol-4-yl)amino)-1H-pyrazolo[3,4-d]pyrimidin-1-yl)methyl)phenyl)(morpholino)methanone]
< 100	1000 to 10000	Cn1cc(Nc2ncc3cnn(Cc4cc(F)cc(C(=O)N5CCNCC5)c4)c3n2)cn1 [Example 80, (3-Fluoro-5-((6-((1-methyl-1H-pyrazol-4-yl)amino)-1H-pyrazolo[3,4-d]pyrimidin-1-yl)methyl)phenyl)(piperazin-1-yl)methanone]
< 100	1000 to 10000	Cn1cc(Nc2ncc3cnn(Cc4cccc(C(=O)N5CCOCC5)c4F)c3n2)cn1 [Example 87, (2-Fluoro-3-((6-((1-methyl-1H-pyrazol-4-yl)amino)-1H-pyrazolo[3,4-d]pyrimidin-1-yl)methyl)phenyl)(morpholino)methanone]
< 100	1000 to 10000	O=C1COCCN1c1cccc(Cn2ncc3cnc(Nc4cnn(CCO)c4)nc32)c1F [Example 46, 4-(2-Fluoro-3-((6-((1-(2-hydroxyethyl)-1H-pyrazol-4-yl)amino)-1H-pyrazolo[3,4-d]pyrimidin-1-yl)methyl)phenyl)morpholin-3-one]
< 100	1000 to 10000	Cn1cc(Nc2ncc3cnn(Cc4cc(F)cc(N5CCOCC5=O)c4)c3n2)cn1 [Example 52, 4-(3-Fluoro-5-((6-((1-methyl-1H-pyrazol-4-yl)amino)-1H-pyrazolo[3,4-d]pyrimidin-1-yl)methyl)phenyl)morpholin-3-one]
